Measured values from paper PMC6427912 (Journal of medicinal chemistry, 2019).
Converted amounts (≈) assume the structure as drawn. “And” between values parts separate entries of the source, which are not always exact repeats. Equal entries are not always repeated. Where two headings read alike, the source gives them in different places.

What was measured:
[1] = target: EcOPPS (E. coli octaprenyl diphosphate synthase) (Escherichia coli, UniProt P0AD57); test: OPPS enzyme inhibition assay; assay type: biochemical; conditions: IC50 against EcOPPS
S. aureus = S. aureus growth inhibition assay; assay type: cell-based, Staphylococcus aureus; conditions: for Sa ED50: S. aureus growth inhibition
B. anthracis Sterne = assay type: cell-based, Bacillus anthracis; conditions: B. anthracis Sterne growth inhibition
B. subtilis [2] = test: B. subtilis growth inhibition assay; assay type: cell-based, Bacillus subtilis
Mycobacterium smegmatis = test: M. smegmatis growth inhibition assay; assay type: cell-based
[3] = HEK293 cell growth inhibition assay; assay type: cell-based, human; conditions: human, HEK293 cells
HEK293 cells = test: HEK293 cell growth inhibition assay; assay type: cell-based, human; conditions: for HEK 293: HEK293 cell growth inhibition ED50, 24 hr incubation; for HEK293 toxicity (ED50): 96 hours incubation
B. subtilis [4] = test: B. subtilis serum binding assay; assay type: cell-based, Bacillus subtilis; conditions: for effect of serum on B. subtilis growth inhibition: 4% or 10% fetal bovine serum
E. faecalis = conditions: cited from earlier work
[5] = target: SaHepPPS (S. aureus heptaprenyl diphosphate synthase) (Staphylococcus aureus, UniProt Q2FYG6); test: HepPPS enzyme inhibition assay; assay type: biochemical; conditions: IC50 against SaHepPPS
E. faecium = conditions: cited from earlier work
B. subtilis [6] = test: B. subtilis cell growth inhibition rescue assays; assay type: cell-based, Bacillus subtilis
EcUPPS = EcUPPS (Escherichia coli, UniProt P60472); test: UPPS enzyme inhibition assay; assay type: biochemical, E. coli
[7] = target: T1, HsFPPS (human farnesyl diphosphate synthase) (Homo sapiens, UniProt P14324); test: FPPS enzyme inhibition assay; assay type: biochemical
T1 sequence (P14324 1-419): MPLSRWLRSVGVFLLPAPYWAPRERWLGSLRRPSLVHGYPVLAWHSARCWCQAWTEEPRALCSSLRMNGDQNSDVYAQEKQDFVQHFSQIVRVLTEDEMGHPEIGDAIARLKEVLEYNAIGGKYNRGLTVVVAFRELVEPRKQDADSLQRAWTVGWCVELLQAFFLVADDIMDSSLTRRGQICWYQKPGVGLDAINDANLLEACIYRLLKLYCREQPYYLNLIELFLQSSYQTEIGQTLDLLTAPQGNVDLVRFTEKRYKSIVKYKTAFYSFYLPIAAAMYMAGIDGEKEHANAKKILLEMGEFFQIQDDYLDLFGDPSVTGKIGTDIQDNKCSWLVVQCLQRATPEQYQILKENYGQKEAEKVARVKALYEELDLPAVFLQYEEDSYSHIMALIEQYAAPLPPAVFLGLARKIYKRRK

B. subtilis [8] = conditions: cited from earlier work
P. aeruginosa FPPS = conditions: read-out: activity against P. aeruginosa FPPS; cited from earlier work

Sequence of EcOPPS (E. coli octaprenyl diphosphate synthase) (P0AD57 whole entry): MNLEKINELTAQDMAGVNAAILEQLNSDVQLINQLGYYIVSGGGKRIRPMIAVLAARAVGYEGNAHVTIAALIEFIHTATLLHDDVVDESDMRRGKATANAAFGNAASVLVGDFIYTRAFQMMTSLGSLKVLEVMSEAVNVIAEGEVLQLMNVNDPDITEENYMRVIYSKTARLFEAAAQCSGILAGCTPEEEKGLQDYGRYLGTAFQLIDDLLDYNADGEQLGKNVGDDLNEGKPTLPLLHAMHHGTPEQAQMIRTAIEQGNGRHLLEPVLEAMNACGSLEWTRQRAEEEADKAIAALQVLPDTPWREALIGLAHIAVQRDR
Sequence of EcUPPS (P60472 whole entry): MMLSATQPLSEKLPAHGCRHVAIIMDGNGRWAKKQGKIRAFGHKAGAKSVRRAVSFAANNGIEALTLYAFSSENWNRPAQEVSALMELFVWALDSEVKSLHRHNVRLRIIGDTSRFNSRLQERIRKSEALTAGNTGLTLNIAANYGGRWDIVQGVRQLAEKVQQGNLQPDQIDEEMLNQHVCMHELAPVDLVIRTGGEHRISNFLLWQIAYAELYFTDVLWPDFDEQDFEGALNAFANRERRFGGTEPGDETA

SMILES	IC50 [1]	Sa ED50 (S. aureus)	Sa ED50 (S. aureus; value in parentheses)	Ba ED50 (B. anthracis Sterne)	Ba ED50 (B. anthracis Sterne; value in parentheses)	Bs ED50 (B. subtilis [2]; 12 hours)	Bs ED50 (B. subtilis [2]; value in parentheses)	Ms ED50 (Mycobacterium smegmatis; 48 hours)	Ms ED50 (Mycobacterium smegmatis; value in parentheses)	HEK 293 (HEK293 cells)	effect of serum on B. subtilis growth inhibition (B. subtilis [4])	HEK293 toxicity (ED50) (HEK293 cells)	also measured
CCCCCCCCCCOc1ccc[n+](CC(P(=O)([O-])O)P(=O)(O)O)c1 (stereo not shown) [Compound 6]	~0.006 µM												
O=P(O)(O)C(O)(Cn1ccnc1)P(=O)(O)O [Compound 24, zoledronate]	< 1 µM												
CC(C)CCCC(C)CCCc1cc[n+](CC(P(=O)([O-])O)P(=O)(O)O)cc1 (stereo not shown) [Compound 80, Hydrogen(2-(4-(4,8-dimethylnonyl)pyridin-1-ium-1-yl)-1-phosphonoethyl) phosphonate]		21 µg/mL	50 µM	2.2 µg/mL	5.2 µM	3.1 µg/mL	7.4 µM	7.2 µg/mL	17 µM	295 µg/mL			IC50 [3]: ~1000 µM; HEK 293 (HEK293 cells; value in parentheses): 700 µM
CCCCCCCCCCCc1ccc[n+](CC(P(=O)([O-])O)P(=O)(O)O)c1 (stereo not shown) [Compound 76, Hydrogen (1-phosphono-2-(3-undecylpyridin-1-ium-1-yl)ethyl)phosphonate]		13 µg/mL	30 µM	0.6 µg/mL	1.4 µM	2.1 µg/mL	4.8 µM	6.1 µg/mL	14 µM	96 µg/mL	no effect	7.3 µM	
CC(C)CCCC(C)CCOc1cc[n+](CC(P(=O)([O-])O)P(=O)(O)O)cc1 (stereo not shown) [Compound 84, Hydrogen (2-(4-((3,7-dimethyloctyl)oxy)pyridin-1-ium-1-yl)-1-phosphonoethyl) phosphonate]			66 µM	2.5 µg/mL	5.9 µM		14 µM	150 µg/mL	350 µM	420 µg/mL			IC50 [3]: ~1000 µM; HEK 293 (HEK293 cells; value in parentheses): 1000 µM
CCCCCCCCCCCCCCOc1cccc(O)c1C(=O)O [Compound 70]													IC50 (S. aureus; Staphylococcus aureus, read-out: IC50 for S. aureus cell growth inhibition): 19 µM; MIC E. faecalis cell growth (E. faecalis): 4 µg/mL (≈ 11.4 µM); IC50 [5]: 1 to 2 µM; MIC E. faecium cell growth (E. faecium): 4 µg/mL (≈ 11.4 µM)
CC(C)CCCC(C)CCOc1ccc[n+](CC(P(=O)([O-])O)P(=O)(O)O)c1 (stereo not shown) [Compound 74, Hydrogen(2-(3-((3,7-dimethyloctyl)oxy)pyridin-1-ium-1-yl)-1-phosphonoethyl) phosphonate]		14 µg/mL	33 µM	2.3 µg/mL	5.4 µM		2.4 µM	5.9 µg/mL	14 µM	262 µg/mL	little effect	76 µM and ~ 70 µM	increase in ED50 for B. subtilis growth inhibition, rescue by HMBPP (B. subtilis [6]; 50 µM HMBPP): ~ 2 x; increase in ED50 for B. subtilis growth inhibition, rescue by MK-4 (B. subtilis [6]; 50 µM MK-4): ~ 5 x; inhibition of UPPS (EcUPPS): no inhibition; IC50 [7]: 0.2 µM and ~0.2 µM; HEK293 toxicity (HEK293 cells; after 24 hrs): ~ 0.5 mM
CC(C)CCCC(C)CCCc1ccc[n+](CC(P(=O)([O-])O)P(=O)(O)O)c1 (stereo not shown) [Compound 77, Hydrogen(2-(3-(4,8-dimethylnonyl)pyridin-1-ium-1-yl)-1-phosphonoethyl) phosphonate]		13 µg/mL	31 µM	2.1 µg/mL	5.0 µM	2.2 µg/mL	5.2 µM	5.9 µg/mL	14 µM	194 µg/mL	no effect	140 µM	
O=P([O-])(O)C(Cn1cc[n+](CCCc2ccc(F)c(F)c2)c1)P(=O)(O)O (stereo not shown) [Compound 72, reference compound]												13 µM	activity against B. subtilis (B. subtilis [8]): > 100 µg/mL; increase in ED50 with 10% serum (B. subtilis [4]; B. subtilis, 10% serum): 50%; IC50 (P. aeruginosa FPPS): 0.1 to 0.2 µM
O=P(O)(O)C(O)(Cc1cccc(-c2cccc3c2oc2ccccc23)c1)P(=O)(O)O [Compound 69]	~330 µM		19 µM										IC50 [5]: 1 to 2 µM
